{"source": "patent US20220184222A1", "about": "“BICYCLE TOXIN CONJUGATES AND USES THEREOF” (BicycleTx Limited, priority 2019, published 2022)", "format_in_all_cases": "in vivo, Mus musculus", "key": {"CTG-0192": {"test_system": "CTG-0192", "test": "Champions TumorGraft NSCLC PDX efficacy, model CTG-0192", "protocol": "(§1) Mice were implanted subcutaneously into the left flank with tumor fragments from one of the various models. […] Effects on tumor growth were evaluated by measuring percent tumor growth inhibition (% TGI), and the number of complete responders (CR), partial responders (PR), and tumor-free survivors (TFS). Tolerability was assessed by body weight loss, lethality, and clinical signs of adverse treatment-related side effects. Tumor volumes and body weights were measured twice a week.\n(§2) Dosing solutions of BT5528 […] were pre-formulated. These dosing solutions were stored at −80° C. in the dark. On each day of dosing, a frozen aliquot of each test agent was thawed, stored at 2-8° C. and used for dosing.\n(§3) The animals used in this study are described below: • Species: Mus musculus • Strain: Athymic Nude-Foxn1^nu (immune-compromised) • Source: Envigo (Indianapolis, Ind., USA) • Number of animals per group: 2 • Age and sex: At least 6-8 weeks of age at start of dosing, female • Weight: At least 18 grams at start of dosing • Acclimation period: 3 days\n(§4) Stock mice were implanted with tumor cells from Champions TumorGraft® models CTG-0160, CTG-0170, CTG-0178, CTG-0192, CTG-0363, CTG-0808, CTG-0838, CTG-0848, CTG-1212, CTG-1502, CTG-1535, CTG-2011, CTG-2393, CTG-2539 or CTG-2540. After the tumors reached 1000-1500 mm^3, they were harvested and the tumor fragments (approximately 5×5×5 mm^3) were implanted SC in the left flank of the female study mice. Each animal was implanted with a specific passage lot and documented. Tumor growth was monitored twice a week using digital calipers and the tumor volume (TV) was calculated using the formula (0.52×[length×width^2]). When the TV reached an average volume of 150-300 mm^3, animals were matched by tumor size and assigned into Vehicle Control and treatment groups (n=2/group) and dosing was initiated on Day 0. After the initiation of dosing on Day 0, animals were weighed twice per week using a digital scale and TV was measured twice per week and also on the final day of study. The study was completed when the mean tumor volume of Vehicle Control reached 1500 mm^3 or up to Day 60, whichever occurred first.\n(§5) Beginning on Day 0, animals were observed daily and weighed twice weekly using a digital scale; data including individual and mean gram weights, mean percent weight change versus Day 0 (% vD0) were recorded for each group and % vD0 plotted at study completion. […] Treatment resulting in a mean % vD0>20% and/or >10% mortality was considered above the maximum tolerated dose. Maximum mean % vD0 (weight nadir) for each treatment group was reported at study completion.\n(§6) Inhibition of tumor growth was determined by calculating the percent TGI (100%×[1−(final MTV−initial MTV of a treated group)/(final MTV−initial MTV of the control group)]). Treatment started on Day 0.\n(§7) Additional endpoints used to evaluate efficacy were: the number of complete responders (CR), partial responders (PR), and tumor-free survivors (TFS). PRs were considered exclusive of CRs, as were TFS.\n(§8) Statistical analyses of anti-tumor efficacy were performed using one-way ANOVA followed by Dunnett's multiple comparisons test (GraphPad Prism version 8.2.0). Significant p-values=<0.05.\nAnimals were dosed according to the schedule on Table 7-1. The study was terminated on Day 34."}, "CTG-0838": {"test_system": "CTG-0838", "test": "Champions TumorGraft NSCLC PDX efficacy, model CTG-0838", "protocol": "(§9) Mice were implanted subcutaneously into the left flank with tumor fragments from one of the various models. After tumors grew to an average of 150-300 mm^3, mice were treated by IV administration Q7Dx4 (n=2) with vehicle or 3 mg/kg of BT5528. Effects on tumor growth were evaluated by measuring percent tumor growth inhibition (% TGI), and the number of complete responders (CR), partial responders (PR), and tumor-free survivors (TFS). Tolerability was assessed by body weight loss, lethality, and clinical signs of adverse treatment-related side effects. Tumor volumes and body weights were measured twice a week.\nas §2, §3, §4, §5, §6, §7, §8\n(§10) Animals were dosed according to the schedule on Table 7-1. The study was terminated on Day 27."}, "CTG-1212": {"test_system": "CTG-1212", "test": "Champions TumorGraft NSCLC PDX efficacy, model CTG-1212", "protocol": "as §9, §2, §3, §4, §5, §6, §7, §8, §10"}, "CTG-1535": {"test_system": "CTG-1535", "test": "Champions TumorGraft NSCLC PDX efficacy, model CTG-1535", "protocol": "as §1, §2, §3, §4, §5, §6, §7, §8\nAnimals were dosed according to the schedule on Table 7-1. The study was terminated on Day 35."}, "CTG-2539": {"test_system": "CTG-2539", "test": "Champions TumorGraft NSCLC PDX efficacy, model CTG-2539", "protocol": "as §1\n[…] These dosing solutions were stored at −80° C. in the dark. On each day of dosing, a frozen aliquot of each test agent was thawed, stored at 2-8° C. and used for dosing.\nas §3, §4, §5, §6, §7, §8\nAnimals were dosed according to the schedule on Table 7-1. The Vehicle Control reached endpoint on Day 21 and the BT5528 group reached endpoint on Day 18. The study was terminated on Day 25."}, "[1]": {"conditions": "CTG-0192, 3 mg/kg IV Q7Dx5, Day 0-34"}, "[2]": {"conditions": "CTG-0838, 3 mg/kg IV Q7Dx4, Day 0-27"}, "[3]": {"conditions": "CTG-1212, 3 mg/kg IV Q7Dx4, Day 0-27"}, "[4]": {"conditions": "CTG-1535, 3 mg/kg IV Q7Dx5, Day 0-35"}, "[5]": {"conditions": "CTG-2539, 3 mg/kg IV Q7Dx3, Day 0-25"}}, "note": "Starred links: 1 amine or outer side, 2 acyl side, 3 side chain; linkers in the order of their positions; H or OH if unused. Non-standard residues stand in square brackets, D forms with d. Residues, ends and D or L forms follow the SMILES beside them. *: point of attachment. Dolaproine = CO[C@@H]([C@@H]1CCCN1)[C@@H](C)C(=O)O; Dil = CC[C@H](C)[C@H](NC)[C@@H](CC(=O)O)OC; PABC = O=C(OCc1ccc(N[*:1])cc1)[*:2]; X1 = O=C(CCCC(=O)*)ON1C(=O)CCC1=O; X2 = C[C@@H](N*)[C@@H](O)c1ccccc1; Cit = NC(=O)NCCC[C@H](N)C(=O)O; NMeV = CN[C@H](C(=O)O)C(C)C", "data": [{"smiles": "CC[C@H](C)[C@@H]([C@@H](CC(=O)N1CCC[C@H]1[C@H](OC)[C@@H](C)C(=O)N[C@H](C)[C@@H](O)c1ccccc1)OC)N(C)C(=O)[C@@H](NC(=O)[C@H](C(C)C)N(C)C(=O)OCc1ccc(NC(=O)[C@H](CCCNC(N)=O)NC(=O)[C@@H](NC(=O)CCCC(=O)ON2C(=O)CCC2=O)C(C)C)cc1)C(C)C", "note": "[BT5528] (X1-V[Cit][PABC][NMeV]V[Dil][Dolaproine]-X2)", "values": [{"measurement": "maximum mean body weight loss", "setting": "CTG-0192; 3 mg/kg IV Q7Dx5, Day 7", "value": 2.3, "unit": "%"}, {"measurement": "MTV (mean tumor volume)", "setting": "CTG-0192; 3 mg/kg IV Q7Dx5, Day 34", "value": "740±386", "unit": "mm^3"}, {"measurement": "TGI", "setting": "CTG-0192; 3 mg/kg IV Q7Dx5, Day 34", "value": 36, "unit": "%"}, {"measurement": "# CR (complete responders)", "setting": "CTG-0192; [1]", "value": "0/0/0"}, {"measurement": "# PR (partial responders)", "setting": "CTG-0192; [1]", "value": "0/0/0"}, {"measurement": "# TFS (tumor-free survivors)", "setting": "CTG-0192; [1]", "value": "0/0/0"}, {"measurement": "% TGI", "setting": "CTG-0192; CTG-0192, 3 mg/kg IV Q7Dx5, Day 34", "value": 36, "unit": "%"}, {"measurement": "Day 34 Tumor Volume Mean TV ± SEM", "setting": "CTG-0192; CTG-0192, BT5528 3 mg/kg IV Q7Dx5, Day 34, n=2", "value": "740 ± 386", "unit": "mm^3"}, {"measurement": "mean body weight loss", "setting": "CTG-0838; 3 mg/kg IV Q7Dx4", "value": "no mean body weight loss"}, {"measurement": "MTV (mean tumor volume)", "setting": "CTG-0838; 3 mg/kg IV Q7Dx4, Day 27", "value": "269±128", "unit": "mm^3"}, {"measurement": "TGI", "setting": "CTG-0838; 3 mg/kg IV Q7Dx4, Day 27", "value": 97, "unit": "%"}, {"measurement": "# CR (complete responders)", "setting": "CTG-0838; [2]", "value": "0/0/0"}, {"measurement": "# PR (partial responders)", "setting": "CTG-0838; [2]", "value": "0/0/0"}, {"measurement": "# TFS (tumor-free survivors)", "setting": "CTG-0838; [2]", "value": "0/0/0"}, {"measurement": "% TGI", "setting": "CTG-0838; CTG-0838, 3 mg/kg IV Q7Dx4, Day 27", "value": 97, "unit": "%"}, {"measurement": "Day 27 Tumor Volume Mean TV ± SEM", "setting": "CTG-0838; CTG-0838, BT5528 3 mg/kg IV Q7Dx4, Day 27, n=2", "value": "269 ± 128", "unit": "mm^3"}, {"measurement": "mean body weight loss", "setting": "CTG-1212; 3 mg/kg IV Q7Dx4", "value": "minor mean body weight losses"}, {"measurement": "MTV (mean tumor volume)", "setting": "CTG-1212; 3 mg/kg IV Q7Dx4, Day 27", "value": "128±53", "unit": "mm^3"}, {"measurement": "TGI", "setting": "CTG-1212; 3 mg/kg IV Q7Dx4, Day 27", "value": 112, "unit": "%"}, {"measurement": "# CR (complete responders)", "setting": "CTG-1212; [3]", "value": "0/0/0"}, {"measurement": "# PR (partial responders)", "setting": "CTG-1212; [3]", "value": "0/0/0"}, {"measurement": "# TFS (tumor-free survivors)", "setting": "CTG-1212; [3]", "value": "0/0/0"}, {"measurement": "% TGI", "setting": "CTG-1212; CTG-1212, 3 mg/kg IV Q7Dx4, Day 27", "value": 112, "unit": "%"}, {"measurement": "Day 27 Tumor Volume Mean TV ± SEM", "setting": "CTG-1212; CTG-1212, BT5528 3 mg/kg IV Q7Dx4, Day 27, n=2", "value": "128 ± 53", "unit": "mm^3"}, {"measurement": "MTV (mean tumor volume)", "setting": "CTG-1535; 3 mg/kg IV Q7Dx5, Day 35", "value": "307±91", "unit": "mm^3"}, {"measurement": "TGI", "setting": "CTG-1535; 3 mg/kg IV Q7Dx5, Day 35", "value": 85, "unit": "%"}, {"measurement": "# CR (complete responders)", "setting": "CTG-1535; [4]", "value": "0/0/0"}, {"measurement": "# PR (partial responders)", "setting": "CTG-1535; [4]", "value": "0/0/0"}, {"measurement": "# TFS (tumor-free survivors)", "setting": "CTG-1535; [4]", "value": "0/0/0"}, {"measurement": "% TGI", "setting": "CTG-1535; CTG-1535, 3 mg/kg IV Q7Dx5, Day 35", "value": 85, "unit": "%"}, {"measurement": "Day 35 Tumor Volume Mean TV ± SEM", "setting": "CTG-1535; CTG-1535, BT5528 3 mg/kg IV Q7Dx5, Day 35, n=2", "value": "307 ± 91", "unit": "mm^3"}, {"measurement": "MTV (mean tumor volume)", "setting": "CTG-2539; 3 mg/kg IV Q7Dx3, Day 18", "value": "2029±594", "unit": "mm^3"}, {"measurement": "TGI", "setting": "CTG-2539; 3 mg/kg IV Q7Dx3, Day 18", "value": "−51", "unit": "%"}, {"measurement": "# CR (complete responders)", "setting": "CTG-2539; [5]", "value": "0/0/0"}, {"measurement": "# PR (partial responders)", "setting": "CTG-2539; [5]", "value": "0/0/0"}, {"measurement": "# TFS (tumor-free survivors)", "setting": "CTG-2539; [5]", "value": "0/0/0"}, {"measurement": "% TGI", "setting": "CTG-2539; CTG-2539, 3 mg/kg IV Q7Dx3, Day 18", "value": "−51", "unit": "%"}, {"measurement": "Day 18 Tumor Volume Mean TV ± SEM", "setting": "CTG-2539; CTG-2539, BT5528 3 mg/kg IV Q7Dx3, Day 18, n=2", "value": "2029 ± 594", "unit": "mm^3"}]}]}
